The values that follow come from patent US5578634A, “1H-indole-3-acetic acid hydrazide sPLA2 inhibitors” (Eli Lilly and Company, priority 1995, dated 1996).

The target of this assay is T1, human secreted PLA2 (Homo sapiens, UniProt P14555).
T1 sequence (P14555 21-144): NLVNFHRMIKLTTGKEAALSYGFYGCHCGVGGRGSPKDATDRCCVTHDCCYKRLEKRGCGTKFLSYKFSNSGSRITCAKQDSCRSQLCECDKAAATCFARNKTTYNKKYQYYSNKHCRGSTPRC
The assay can be described thus: chromogenic assay of recombinant human secreted phospholipase A2 inhibition (Assay Example 1). The format is biochemical. The following applies: mean of 3-5 tests; 40° C., 30 minutes, pH 7.5, 405 nanometers; read-out: Inhibition of human secreted PLA2 IC50 ± mean deviation (3-5 tests). The source says:
The assay described herein has been adapted for high volume screening using 96 well microtiter plates. A general description of this assay method is found in the article, "Analysis of Human Synovial Fluid Phospholipase A2 on Short Chain Phosphatidylcholine-Mixed Micelles: Development of a Spectrophotometric Assay Suitable for a Microtiterplate Reader", by Laure J. Reynolds, Lori L. […] Reagents, the disclosure of which is incorporated herein by reference. REACTION BUFFER CaCl2.2H20 (1.47 g/L) KCl (7.455 g/L) Bovine Serum Albumin (fatty acid free) (1 g/L) (Sigma A-7030, product of Sigma Chemical Co. St. Louis Mo., USA) TRIS HCl (3.94 g/L) pH 7.5 (adjust with NaOH) ENZYME BUFFER […] 0.2 NaCl Adjust pH to 4.5 with acetic acid DTNB […] RACEMIC DIHEPTANOYL THIO - PC […] TRITON X-100™ prepare at 6.249 mg/ml in reaction buffer to equal […]. REACTION MIXTURE A measured volume of racemic dipheptanoyl thio PC supplied in chloroform at a concentration of 100 mg/ml is taken to dryness and redissolved in 10 millimolar TRITON X-100™ nonionic detergent aqueous solution. Reaction Buffer is added to the solution, then DTNB to give the Reaction Mixture. The reaction mixture thus obtained contains 1 mM diheptanoly thio-PC substrate, 0.29 mM Triton X-100™ detergent, and 0.12 mM DTMB in a buffered aqueous solution at pH 7.5. Assay Procedure: 1. Add 0.2 ml reaction mixture to all wells; 2. Add 10 ul test compound (or solvent blank) to appropriate wells, mix 20 seconds; 3. Add 50 nanograms of sPLA2 (10 microliters) to appropriate wells; 4. Incubate plate at 40° C. for 30 minutes; […] Read absorbance of wells at 405 nanometers with an automatic plate reader. All compounds were tested in triplicate. Typically, compounds were tested at a final concentration of 5 ug/ml. […] Lack of color development at 405 nanometers evidenced inhibition. Compounds initially found to be active were reassayed to confirm their activity and, if sufficiently active, IC50 values were determined. […] In all cases, % inhibition measured at 405 nanometers generated by enzyme reactions containing inhibitors relative to the uninhibited control reactions was determined. Each sample was titrated in triplicate and result values were averaged for plotting and calculation of IC50 values. […] IC50 values were determined at least three times for each compound tested.
Turning to `Cc1c(CC(=O)NN)c2c(Br)cccc2n1Cc1ccccc1` [Example 53, 4-Bromo-2-methyl-1-(phenylmethyl)-1H-indole-3-acetic acid hydrazide], the IC50 (usually the concentration that inhibits the measured activity by half) was found to be 2.06 ± 0.94 µM.

In the case of `COc1ccc2c(c1)c(CC(=O)NN)c(C)n2Cc1c(Cl)cccc1Cl` [Example 21, 1-(2,6-Dichlorophenylmethyl)-5-methoxy-2-methyl-1H-indole-3-acetic acid hydrazide], the half-inhibitory concentration (IC50) came to 0.64 ± 0.19 µM.

For `CCc1c(CC(=O)NN)c2cc(F)ccc2n1Cc1ccccc1` [Example 7, 2-Ethyl-5-fluoro-1-(phenylmethyl)-1H-indole-3-acetic acid hydrazide], the IC50 amounted to 1.52 ± 0.56 µM. Regarding `Cc1c(CC(=O)NN)c2cc(OCc3ccc4ccccc4n3)ccc2n1Cc1ccc(Cl)cc1` [Example 63, 1-[(4-Chlorophenyl)methyl]-2-methyl-5-[(2-quinolyl)methoxy]-1H-indole-3-acetic acid hydrazide], the IC50 is 8.46 ± 5.45 µM. For `COc1ccc2c(c1)c(CC(=O)NN)c(C)n2CCCc1ccccc1` [Example 41, 5-Methoxy-2-methyl-1-(3-phenylpropyl)-1H-indole-3-acetic acid hydrazide], the IC50 was 16.8 ± 2.89 µM. In the case of `Cc1c(CC(=O)NN)c2ccccc2n1Cc1ccccc1` [Example 10, 2-Methyl-1-(phenylmethyl)-1H-indole-3-acetic acid hydrazide], the IC50 is 2.36 ± 0.5 µM. The same measure for `Cc1c(CC(=O)NN)c2cc(C(=O)NN)ccc2n1Cc1cccc(Cl)c1` [Example 69, 1-[(3-Chlorophenyl)methyl]-5-hydrazinocarbonyl-2-methyl-1H -indole-3-acetic acid hydrazide]: 2.7 ± 0.38 µM. As to `CCOc1ccc2c(c1)c(CC(=O)NN)c(C)n2Cc1ccccc1` [Example 1, 5-Ethoxy-2-methyl-1-(phenylmethyl)-1H-indole-3-acetic acid hydrazide], the IC50 came out at 0.8 ± 0.25 µM.

As for `COc1ccc2c(c1)c(CC(=O)NN)c(C)n2Cc1ccc(O)cc1` [Example 33, 1-[(4-Hydroxyphenyl)methyl]-5-methoxy-2-methyl-1H-indole-3-acetic acid hydrazide], the IC50 was found to be 5.96 ± 2.03 µM. The same measure for `Cc1ccc2c(c1)c(CC(=O)NN)c(C)n2Cc1ccccc1` [Example 59, 2,5-Dimethyl-1-(phenylmethyl)-1H-indole-3-acetic acid hydrazide]: 0.76 ± 0.35 µM. Regarding `COc1ccc2c(c1)c(CC(=O)NN)c(C)n2Cc1ccncc1` [Example 39, 5-Methoxy-2-methyl-1-[(4-pyridyl)methyl]-1H-indole-3-acetic acid hydrazide], the 50% inhibitory concentration (IC50) was determined as 45.9 ± 13.1 µM. Take `COc1ccc2c(c1)c(CC(=O)NN)c(C)n2Cc1cccc(C)c1` [Example 22, 5-Methoxy-1-[(3-methylphenyl)methyl]-2-methyl-1H-indole-3-acetic acid hydrazide]: the IC50 amounted to 1.54 ± 0.67 µM. The same measure for `CCCCCCCCCCCCCCCCCCn1c(C)c(CC(=O)NN)c2cc(OC)ccc21` [Example 15, 5-Methoxy-2-methyl-1-octadecyl-1H-indole-3-acetic acid hydrazide]: > 100 µM; for `COc1ccc2c(c1)c(CC(=O)NN)c([S+](C)[O-])n2Cc1ccccc1` (centres unmarked) [Example 46, 5-Methoxy-2-methylsulfinyl-1-(phenylmethyl)-1H-indole-3-acetic acid hydrazide]: 46.1 ± 24.7 µM. As for `COc1ccc2c(c1)c(CC(=O)NN)c(C)n2Cc1cc(Cl)ccc1Cl` [Example 20, 1-(2,5-Dichlorophenylmethyl)-5-methoxy-2-methyl-1H-indole-3-acetic acid hydrazide], the IC50 was found to be 9.39 ± 2.3 µM. Next, “5-Methoxy-2-methyl-1-(phenylmethyl)-1H-indole-3-propanoic acid hydrazide [Example 65]”: 32.6 µM. The same measure for `COc1ccc2c(c1)c(CC(=O)NN)c(C)n2Cc1ccccc1OC` [Example 26, 5-Methoxy-1-[(2-methoxyphenyl)methyl]-2-methyl-1H-indole-3-acetic acid hydrazide]: 3.26 ± 1.74 µM.

In the case of `CCCCCCCCCCOc1cccc(Cn2c(C)c(CC(=O)NN)c3cc(OC)ccc32)c1` [Example 29, 1-[(3-Decyloxyphenyl)methyl]-5-methoxy-2-methyl-1H-indole-3-acetic acid hydrazide], the IC50 worked out at 0.84 ± 0.31 µM. The same measure for `Cc1c(CC(=O)NN)c2cc(OCCCC(=O)O)ccc2n1Cc1ccccc1` [Example 71, 4-[[3-(2-Hydrazino-2-oxoethyl)-2-methyl-1-(phenylmethyl)-1H-indol-5-yl]oxy]butanoic acid]: 0.86 µM; for `Cc1c(CC(=O)NN)c2cc(Cl)ccc2n1Cc1cccc(Cl)c1` [Example 49, 5-Chloro-[(3-chlorophenyl)methyl]-2-methyl-1H-indole-3-acetic acid hydrazide]: 1.63 ± 0.74 µM; for `COc1ccc2ccccc2c1Cn1c(C)c(CC(=O)NN)c2ccccc21` [Example 11, 1-(2-Methoxy-1-naphthalenylmethyl)-2-methyl-1H-indole-3-acetic acid hydrazide]: 11.1 ± 1.8 µM.

In the case of `Cc1c(CC(=O)NN)c2cc(F)ccc2n1Cc1ccccc1` [Example 47, 5-Fluoro-2-methyl-1-(phenylmethyl)-1H-indole-3-acetic acid hydrazide], the IC50 was found to be 1.49 ± 0.34 µM. With `COc1ccc2c(c1)c(CC(=O)NN)c(C)n2Cc1ccc(OCc2ccccc2)cc1` [Example 32, 1-[(4-Benzyloxyphenyl)methyl]-5-methoxy-2-methyl-1H-indole-3-acetic acid hydrazide], the IC50 came to 2.28 ± 0.57 µM.

Regarding `COc1ccc2c(c1)c(CC(=O)NN)c(C)n2Cc1cccc(N)c1` [Example 35, 1-[(3-Aminophenyl)methyl]-5-methoxy-2-methyl-1H-indole-3-acetic acid hydrazide], the half-inhibitory concentration (IC50) worked out at 7.12 ± 4.89 µM. Take `COc1ccc2c(c1)c(CC(=O)NN)c(C)n2Cc1cccc(C(F)(F)F)c1` [Example 23, 5-Methoxy-2-methyl-1-[(3-trifluoromethylphenyl)methyl]-1H-indole-3-acetic acid hydrazide]: the IC50 was determined as 0.89 ± 0.52 µM.

Turning to `COc1ccc2c(c1)c(CC(=O)NN)c(C)n2Cc1cccnc1` [Example 38, 5-Methoxy-2-methyl-1-[(3-pyridyl)methyl]-1H-indole-3-acetic acid hydrazide], the half-inhibitory concentration (IC50) was 84.2 ± 19.4 µM.

For `COc1ccc2c(c1)c(CC(=O)NN)c(C)n2Cc1ccc2ccccc2n1` [Example 40, 5-Methoxy-2-methyl-1-[(2-quinolyl)methyl]-1H-indole-3-acetic acid hydrazide], the IC50 was found to be 8.15 ± 3.27 µM. Next, `Cc1c(CC(=O)NN)c2cc(C(C)(C)C)ccc2n1Cc1ccccc1` [Example 60, 5-tert-Butyl-2-methyl-1-(phenylmethyl)-1H-indole-3-acetic acid hydrazide]: 1.02 ± 0.35 µM; `COc1ccc2c(c1)c(CC(=O)NN)c(C)n2CCCCc1ccccc1` [Example 42, 5-Methoxy-2-methyl-1-(4-phenylbutyl)-1H-indole-3-acetic acid hydrazide]: 16.5 ± 3.58 µM; `Cc1c(CC(=O)NN)c2ccc(Cl)cc2n1Cc1ccccc1` [Example 8, 6-Chloro-2-methyl-1-(phenylmethyl)-1H-indole-3-acetic acid hydrazide]: 1.14 ± 0.44 µM. For `COc1ccc2c(c1)c(CC(=O)NN)c(C)n2Cc1ccccn1` [Example 37, 5-Methoxy-2-methyl-1-[(2-pyridyl)methyl]-1H-indole-3-acetic acid hydrazide], the IC50 was 27.2 ± 7.89 µM. `CCCCCCCCCCn1c(C)c(CC(=O)NN)c2cc(OC)ccc21` [Example 14, 1-Decyl-5-methoxy-2-methyl-1H-indole-3-acetic acid hydrazide]: the IC50 worked out at 7.08 ± 1.61 µM. Next, `Cc1c(CC(=O)NN)c2cc(OCc3ccc4ccccc4n3)ccc2n1Cc1ccccc1` [Example 62, 2-Methyl-1-(phenylmethyl)-5-[(2-quinolyl)methoxy]-1H-indole-3-acetic acid hydrazide]: 0.36 ± 0.17 µM; `Cc1c(CC(=O)NN)c2cc(-c3ccccc3)ccc2n1Cc1cccc(OCc2ccccc2)c1` [Example 58, 1-[(3-Benzyloxyphenyl)methyl]-2-methyl-5-phenyl-1H-indole-3-acetic acid hydrazide]: 2.21 ± 1.16 µM.

Turning to `COc1ccc2c(c1)c(CC(=O)NN)c(C)n2C(C)c1ccccc1` (centres unmarked) [Example 36, 5-Methoxy-2-methyl-1-(1-phenylethyl)-1H-indole-3-acetic acid hydrazide], the IC50 stood at 5.32 ± 1.93 µM.
